Earlier results, collected in US7276608B2, “Tetrahydroquinoline derivatives as cannabinoid receptor modulators” (Bristol-Myers Squibb Company, priority 2003, dated 2007).

What was measured:
[1] = chronic administration for two weeks
[2] = 16 week trial period, Phase IIb

| SMILES | body weight [1] | body weight in human subjects [2] |
| --- | --- | --- |
| Cc1c(C(=O)NN2CCCCC2)nn(-c2ccc(Cl)cc2Cl)c1-c1ccc(I)cc1 [AM-251] | substantial body weight reduction | – |
| Cc1c(C(=O)NN2CCCCC2)nn(-c2ccc(Cl)cc2Cl)c1-c1ccc(Cl)cc1 [SR-141716] | – | dose-dependently reduced body weight |
